Columns and labels:
[1] = 10 g sample, 3 min sieving; for Particle size distribution (Alpine AJS) <425 μm: mass fraction passing 425 μm sieve; for Particle size distribution (Alpine AJS) >75 μm: mass fraction retained on 75 μm sieve; for Particle size distribution (Alpine AJS) >180 μm: mass fraction retained on 180 μm sieve
Source text: In general, the method for carrying out an air jet sieving procedure is as follows.
Together with sample material the sieve is placed on the unit and covered with a lid. A powerful industrial vacuum cleaner generates a strong jet of air which disperses the particles on the sieve through the slotted nozzle rotating below the sieve mesh. Thus the particles are dispersed with each rotation and are distributed over the complete sieve surface. The jet of air causes a continuous new orientation of the particles on the sieve surface. Particles with sizes smaller than the sieve apertures are sucked in by the vacuum cleaner. When using sieves of certain height (e.g. 25 mm height), the inflowing air causes the particles to impact on the lid, thereby helping to destroy agglomerates. The material remaining on the sieve can then be weighed, allowing the amount of the sample having a particle size greater than the aperture of the mesh to be calculated.
Preferably, the sample amount is representative of the sample, and has a mass of at least 10 g. Thus, in one embodiment, the sample amount is 10 g. In this or any other embodiment, sieving time is suitably 3 minutes.
The sieves for use in the air jet sieving method are woven metal sieves. The technical requirements of the test sieves are specified in ISO standard ISO 3310-1:2016 Test sieves—Technical requirements and testing—Part 1: Test sieves of metal wire cloth. The sieves are also according to standard ASTM E11.
The sieving is done according to the process described in Ph.Eur. 2.9.38 Particle-size distribution estimation by analytical sieving. Air jet sieving method is used to determine the mass distribution of particles.
Sieving was done using woven metal sieves according to ISO standard ISO 3310-1:2016 (Test sieves—Technical requirements and testing—Part 1: Test sieves of metal wire cloth). The sieving was done using a single sieve at a time using the appropriate sieve size (75 gm, 180 gm, 425 gm). The sieving was done according to the process described in Ph.Eur. 2.9.38 (Particle-size distribution estimation by analytical sieving).
The sieve was tared. 10 grams of the particle mixture was weighed on the sieve. The sieve was placed on air jet sieve unit and covered with a lid. The vacuum cleaner was switched on, thereby creating a vacuum inside the sieving chamber. The sieving under vacuum was continued for 3 minutes. The finest particles were pulled downwards trough the sieve and the coarse particles remained on the sieve. At the end of the sieving process, the sieve was weighed and the mass of particles remained on the sieve was determined. The sieving process was done as described above using one sieve at a time until the particle size distribution was determined.

[2] = alcohols, esters, ethers and hydrocarbons; cited from earlier work
[3] = Particle size distribution by laser light diffraction (Beckman Coulter LS 230); conditions: for Particle size / particle size distribution by laser light diffraction, in words: based on FIGS. 1-4; for Dv10 / Dv50 / Dv90: volume weighted, Fraunhofer model, suspended in glycerol and water (1:1), 100 mg sample

SMILES | Particle size distribution (Alpine AJS) <425 μm [1] | Particle size distribution (Alpine AJS) >75 μm [1] | Particle size distribution (Alpine AJS) >180 μm [1] | Solubility in most organic solvents [2] | Particle size / particle size distribution by laser light diffraction, in words [3] | Dv10 [3] | Dv50 [3] | Dv90 [3]
O=C1CN(/N=C/c2ccc([N+](=O)[O-])o2)C(=O)N1 [Example 5b, nitrofurantoin anhydrate] | 98% | 95% | 52% |  |  |  |  | 
O=C1CN(/N=C/c2ccc([N+](=O)[O-])o2)C(=O)N1 [Nitrofurantoin anhydrate, 1-[[(5-nitro-2-furanyl)methylene]amino]-2,4-imidazolidinedione] |  |  |  | sparingly soluble |  |  |  | 
O=C1CN(/N=C/c2ccc([N+](=O)[O-])o2)C(=O)N1 [Example 5c, nitrofurantoin anhydrate] | 99% | 93% | 51% |  |  |  |  | 
O=C1CN(/N=C/c2ccc([N+](=O)[O-])o2)C(=O)N1 [Comparison example 8, nitrofurantoin anhydrate, reference compound] |  |  |  |  | smaller than in example 2 |  |  | 
O=C1CN(/N=C/c2ccc([N+](=O)[O-])o2)C(=O)N1 [Example 4, nitrofurantoin anhydrate] | 98% | 99% | 80% |  |  |  |  | 
O=C1CN(/N=C/c2ccc([N+](=O)[O-])o2)C(=O)N1 [Example 2a, nitrofurantoin anhydrate] | 95% | 98% | 72% |  | narrow particle size distribution | 126 μm | 264 μm | 448 μm
O=C1CN(/N=C/c2ccc([N+](=O)[O-])o2)C(=O)N1 [Example 1, nitrofurantoin anhydrate] | 96% | 99% | 76% |  |  |  |  | 
O=C1CN(/N=C/c2ccc([N+](=O)[O-])o2)C(=O)N1 [Comparison Example 9, nitrofurantoin anhydrate, reference compound] | 27% | 99% | 89% |  |  |  |  | 
O=C1CN(/N=C/c2ccc([N+](=O)[O-])o2)C(=O)N1 [Example 2c, nitrofurantoin anhydrate] | 95% | 98% | 70% |  | narrow particle size distribution | 118 μm | 252 μm | 466 μm
O=C1CN(/N=C/c2ccc([N+](=O)[O-])o2)C(=O)N1 [Example 7, nitrofurantoin anhydrate] | 99% | 94% | 36% |  | smaller than in example 2 |  |  | 
O=C1CN(/N=C/c2ccc([N+](=O)[O-])o2)C(=O)N1 [Example 3, nitrofurantoin anhydrate] | 98% | 97% | 68% |  |  |  |  | 
O=C1CN(/N=C/c2ccc([N+](=O)[O-])o2)C(=O)N1 [Example 6, nitrofurantoin anhydrate] | 98% | 87% | 10% |  | smaller than in example 2 |  |  | 
O=C1CN(/N=C/c2ccc([N+](=O)[O-])o2)C(=O)N1 [Example 5a, nitrofurantoin anhydrate] | 97% | 96% | 51% |  |  |  |  | 
O=C1CN(/N=C/c2ccc([N+](=O)[O-])o2)C(=O)N1 [Example 2b, nitrofurantoin anhydrate] | 98% | 98% | 67% |  | narrow particle size distribution | 163 μm | 348 μm | 667 μm

— patent US20230212156A1 (FERMION OY, priority 2020, published 2023)
